Data as given in patent US20100298141A1, “SUBSTITUTED PYRIDINE N-OXIDE HERBICIDES” (E. I. DU PONT DE NEMOURS AND COMPANY, priority 2007, published 2010).

What was measured:
Experiment in all cases: Test F preemergence test
common purslane = format: in vivo, Portulaca oleracea; conditions: scale 0 to 100
Excerpt: (§1) Seeds of plant species selected from bermudagrass (Cynodon dactylon), Surinam grass (Brachiaria decumbens), large crabgrass (Digitaria sanguinalis), green foxtail (Setaria viridis), goosegrass (Eleusine indica), johnsongrass (Sorghum halepense), kochia (Kochia scoparia), pitted morningglory (Ipomoea lacunosa), purple nutsedge (Cyperus rotundus), common ragweed (Ambrosia elation), mustard (Brassica nigra), guineagrass (Panicum maximum), […] (Paspalum dilatatum), barnyardgrass (Echinochloa crus-galli), southern sandbur (Cenchrus echinatus), common sowthistle (Sonchus oleraceous), prickly […] spinosa), Italian ryegrass (Lolium multiflorum), common purslane (Portulaca oleracea), broadleaf signalgrass (Brachiaria platyphylla), common groundsel (Senecio vulgaris), common chickweed (Stellaria media), Virginia dayflower (Commelina virginica), annual bluegrass (Poa annua), naked crabgrass (Digitaria nuda), […] cochinchinensis), quackgrass (Elytrigia repens), Canada horseweed (Conyza canadensis), field bindweed (Convolvulus arvensis), […] (Bidens bipinnata), common mallow (Malva sylvestris), Russian thistle (Salsola kali), and sugarcane (Saccharum officinarum) were planted and treated preemergence with test chemicals formulated in a non-phytotoxic solvent mixture which included a surfactant. At a different time, sugarcane was treated with postemergence applications of some of the test chemicals formulated in the same manner. Plants were approximately 3- to 4-leaf stage for the postemergence treatments. Treated plants and controls were maintained in a greenhouse for 14 to 21 days, after which time all species were compared to controls and visually evaluated. […] A dash (-) response means no test result.

Surinam grass = format: in vivo, Brachiaria decumbens; conditions: scale 0 to 100
Excerpt: as §1

southern sandbur = format: in vivo, Cenchrus echinatus; conditions: scale 0 to 100
Excerpt: as §1

quackgrass = format: in vivo, Elytrigia repens; conditions: scale 0 to 100
Excerpt: as §1

bermudagrass = format: in vivo, Cynodon dactylon; conditions: scale 0 to 100
Excerpt: as §1

naked crabgrass = format: in vivo, Digitaria nuda; conditions: scale 0 to 100
Excerpt: as §1

large crabgrass = format: in vivo, Digitaria sanguinalis; conditions: scale 0 to 100
Excerpt: as §1

common ragweed = format: in vivo, Ambrosia elation; conditions: scale 0 to 100
Excerpt: as §1

guineagrass = format: in vivo, Panicum maximum; conditions: scale 0 to 100
Excerpt: as §1

green foxtail = format: in vivo, Setaria viridis; conditions: scale 0 to 100
Excerpt: as §1

Italian ryegrass = format: in vivo, Lolium multiflorum; conditions: scale 0 to 100
Excerpt: as §1

mustard = format: in vivo, Brassica nigra; conditions: scale 0 to 100
Excerpt: as §1

annual bluegrass = format: in vivo, Poa annua; conditions: scale 0 to 100
Excerpt: as §1

common mallow = format: in vivo, Malva sylvestris; conditions: scale 0 to 100
Excerpt: as §1

pitted morningglory = format: in vivo, Ipomoea lacunosa; conditions: scale 0 to 100
Excerpt: as §1

field bindweed = format: in vivo, Convolvulus arvensis; conditions: scale 0 to 100
Excerpt: as §1

barnyardgrass = format: in vivo, Echinochloa crus-galli
Excerpt: as §1

prickly sida = format: in vivo, Sida spinosa; conditions: scale 0 to 100
Excerpt: as §1

With `Cc1cc[n+]([O-])c(S(=O)(=O)C(Cl)c2c(C(F)(F)F)nn(C)c2OCC(F)(F)F)c1` (racemic) [Compound 37] the “Plant response rating, Purslane” value (common purslane; 16 g ai/ha, preemergence) was 0, the “Purslane plant response rating” value (common purslane; 62 g ai/ha, Preemergence) was 25 and the “Purslane plant response rating” value (common purslane; 125 g ai/ha, preemergence) was 50. The “Plant response rating, Purslane” value (common purslane; Preemergence, 31 g ai/ha) was 0, the “Plant response rating, Surinam Grass” value (Surinam grass; 16 g ai/ha, preemergence) was 0 and the “Surinam Grass plant response rating” value (Surinam grass; 125 g ai/ha, preemergence) was 90. The “Plant response rating, Surinam Grass” value (Surinam grass; Preemergence, 62 g ai/ha) was 60, the “Plant response rating, Surinam Grass” value (Surinam grass; Preemergence, 31 g ai/ha) was 60 and the “Plant response rating, Sandbur” value (southern sandbur; 16 g ai/ha, preemergence) was 35. The “Sandbur plant response rating” value (southern sandbur; 125 g ai/ha, preemergence) was 90, the “Plant response rating, Sandbur” value (southern sandbur; Preemergence, 62 g ai/ha) was 90 and the “Plant response rating, Sandbur” value (southern sandbur; Preemergence, 31 g ai/ha) was 70. The “Plant response rating, Quackgrass” value (quackgrass; 16 g ai/ha, preemergence) was 0, the “Quackgrass plant response rating” value (quackgrass; 62 g ai/ha, Preemergence) was 25 and the “Quackgrass plant response rating” value (quackgrass; 125 g ai/ha, preemergence) was 70. The “Plant response rating, Quackgrass” value (quackgrass; Preemergence, 31 g ai/ha) was 25, the “Plant response rating, Bermudagrass” value (bermudagrass; 16 g ai/ha, preemergence) was 35 and the “Bermudagrass plant response rating” value (bermudagrass; 62 g ai/ha, Preemergence) was 65. For the same molecule, the “Bermudagrass plant response rating” value (bermudagrass; 125 g ai/ha, preemergence) was 75, the “Plant response rating, Bermudagrass” value (bermudagrass; Preemergence, 31 g ai/ha) was 35 and the “Plant response rating, Crabgrass, Naked” value (naked crabgrass; 16 g ai/ha, preemergence) was 40. For the same molecule, the “Crabgrass, Naked plant response rating” value (naked crabgrass; 62 g ai/ha, Preemergence) was 40, the “Crabgrass, Naked plant response rating” value (naked crabgrass; 125 g ai/ha, preemergence) was 100 and the “Plant response rating, Crabgrass, Large” value (large crabgrass; 16 g ai/ha, preemergence) was 0. For the same molecule, the “Crabgrass, Large plant response rating” value (large crabgrass; 62 g ai/ha, Preemergence) was 50, the “Crabgrass, Large plant response rating” value (large crabgrass; 125 g ai/ha, preemergence) was 50 and the “Plant response rating, Crabgrass, Large” value (large crabgrass; Preemergence, 31 g ai/ha) was 35. For the same molecule, the “Plant response rating, Ragweed” value (common ragweed; 16 g ai/ha, preemergence) was 0, the “Ragweed plant response rating” value (common ragweed; 125 g ai/ha, preemergence) was 0 and the “Plant response rating, Ragweed” value (common ragweed; Preemergence, 62 g ai/ha) was 0. The “Plant response rating, Ragweed” value (common ragweed; Preemergence, 31 g ai/ha) was 0, the “Plant response rating, Guineagrass” value (guineagrass; 16 g ai/ha, preemergence) was 65 and the “Guineagrass plant response rating” value (guineagrass; 62 g ai/ha, Preemergence) was 85. For the same molecule, the “Guineagrass plant response rating” value (guineagrass; 125 g ai/ha, preemergence) was 100, the “Plant response rating, Guineagrass” value (guineagrass; Preemergence, 31 g ai/ha) was 75 and the “Plant response rating, Foxtail, Green” value (green foxtail; 16 g ai/ha, preemergence) was 0. For the same molecule, the “Foxtail, Green plant response rating” value (green foxtail; 62 g ai/ha, Preemergence) was 15, the “Foxtail, Green plant response rating” value (green foxtail; 125 g ai/ha, preemergence) was 90 and the “Plant response rating, Foxtail, Green” value (green foxtail; Preemergence, 31 g ai/ha) was 10. The “Plant response rating, Ryegrass, Italian” value (Italian ryegrass; 16 g ai/ha, preemergence) was 20, the “Ryegrass, Italian plant response rating” value (Italian ryegrass; 125 g ai/ha, preemergence) was 100 and the “Plant response rating, Ryegrass, Italian” value (Italian ryegrass; Preemergence, 62 g ai/ha) was 90. For the same molecule, the “Plant response rating, Ryegrass, Italian” value (Italian ryegrass; Preemergence, 31 g ai/ha) was 75, the “Plant response rating, Black Mustard” value (mustard; 16 g ai/ha, preemergence) was 0 and the “Black Mustard plant response rating” value (mustard; 62 g ai/ha, Preemergence) was 50. For the same molecule, the “Black Mustard plant response rating” value (mustard; 125 g ai/ha, preemergence) was 100, the “Plant response rating, Black Mustard” value (mustard; Preemergence, 31 g ai/ha) was 15 and the “Plant response rating, Bluegrass” value (annual bluegrass; 16 g ai/ha, preemergence) was 0. For the same molecule, the “Bluegrass plant response rating” value (annual bluegrass; 62 g ai/ha, Preemergence) was 60, the “Bluegrass plant response rating” value (annual bluegrass; 125 g ai/ha, preemergence) was 80 and the “Plant response rating, Bluegrass” value (annual bluegrass; Preemergence, 31 g ai/ha) was 10. The “Plant response rating, Mallow” value (common mallow; 16 g ai/ha, preemergence) was 0, the “Mallow plant response rating” value (common mallow; 62 g ai/ha, Preemergence) was 0 and the “Mallow plant response rating” value (common mallow; 125 g ai/ha, preemergence) was 90. For the same molecule, the “Plant response rating, Mallow” value (common mallow; Preemergence, 31 g ai/ha) was 0, the “Plant response rating, Morningglory” value (pitted morningglory; 16 g ai/ha, preemergence) was 0 and the “Morningglory plant response rating” value (pitted morningglory; 62 g ai/ha, Preemergence) was 0. The “Morningglory plant response rating” value (pitted morningglory; 125 g ai/ha, preemergence) was 35, the “Plant response rating, Morningglory” value (pitted morningglory; Preemergence, 31 g ai/ha) was 0 and the “Plant response rating, Field Bindweed” value (field bindweed; 16 g ai/ha, preemergence) was 0. The “Field Bindweed plant response rating” value (field bindweed; 62 g ai/ha, Preemergence) was 0, the “Field Bindweed plant response rating” value (field bindweed; 125 g ai/ha, preemergence) was 0 and the “Plant response rating, Field Bindweed” value (field bindweed; Preemergence, 31 g ai/ha) was 0. For the same molecule, the “Plant response rating, Barnyardgrass” value (barnyardgrass; 16 g ai/ha, preemergence, scale 0 to 100 (0 no effect, 100 complete control)) was 20, the “Barnyardgrass plant response rating” value (barnyardgrass; 62 g ai/ha, Preemergence, scale 0 to 100) was 100 and the “Barnyardgrass plant response rating” value (barnyardgrass; 125 g ai/ha, preemergence, scale 0 to 100) was 100. The “Plant response rating, Barnyardgrass” value (barnyardgrass; Preemergence, 31 g ai/ha, scale 0 to 100) was 40, the “Plant response rating, Prickly Sida” value (prickly sida; 16 g ai/ha, preemergence) was 0 and the “Prickly Sida plant response rating” value (prickly sida; 62 g ai/ha, Preemergence) was 35. The “Prickly Sida plant response rating” value (prickly sida; 125 g ai/ha, preemergence) was 90 and the “Plant response rating, Prickly Sida” value (prickly sida; Preemergence, 31 g ai/ha) was 15.
